We go through four molecules from patent publication US10633386B2, “BET protein degraders” (THE REGENTS OF THE UNIVERSITY OF MICHIGAN, priority 2016, dated 2020).

Where two headings read alike, the source gives them in different places.

For orientation: IC50 means the concentration needed to halve the response being measured. A higher IC50 goes with weaker potency in that assay.

The test system of assay [1] is CALU-1. The assay can be described thus: Cell growth inhibition (CellTiter-Glo), NSCLC line CALU-1. It is filed as cell-based. The note with it: CALU-1 non-small cell lung cancer cell line, 4 days. The protocol:
(§1) Cell growth inhibitory activity of representative BET bromodomain degraders in representative non-small cell lung cancer cell lines was determined using the CellTiter-Glo® Luminescent Cell Viability Assay. Cells were seeded in 384-well white opaque cell culture plates at a density of 2,000 cells/well with serially diluted compounds and incubated at 37° C. in an atmosphere of 95% air and 5% CO2 for 4 days. Cell viability was determined using the CellTiter-Glo® Luminescent Cell Viability Assay Kit (Promega, Madison, Wis.) according to the manufacture's instruction. Briefly, a volume of CellTiter-Glo® Reagent equal to the volume of cell culture medium was added to each well, and then the plates were incubated at room temperature for 10-20 minutes. The luminescent signal was measured using a Tecan Infinite M1000 multimode microplate reader (Tecan, Morrisville, N.C.). The half maximal inhibitory concentration (IC50) was calculated using the GraphPad Prism 5 software (GraphPad Software, La Jolla, Calif.). Cpd. A is a BET bromodomain inhibitor, see U.S. Appl.

Assay [2] concerns H1975. Nature of the assay: Cell growth inhibition (CellTiter-Glo), NSCLC line H1975. It is filed as cell-based. The settings on record: H1975 non-small cell lung cancer cell line, 4 days. The protocol:
as §1
In general terms: In ATP-based viability assays light output follows the ATP content of the culture.

The test system of assay [3] is H2444. The assay can be described thus: Cell growth inhibition (CellTiter-Glo), NSCLC line H2444. The class given is cell-based. The note with it: H2444 non-small cell lung cancer cell line, 4 days. The protocol:
as §1

For assay [4], the system named is H1869. The assay can be described thus: Cell growth inhibition (CellTiter-Glo), NSCLC line H1869. The note with it: H1869 non-small cell lung cancer cell line, 4 days. The class given is cell-based. The protocol: as §1
Assay [5] deals with CALU6. Nature of the assay: Cell growth inhibition (CellTiter-Glo), NSCLC line CALU6. It is filed as cell-based. The settings on record: CALU6 non-small cell lung cancer cell line, 4 days. The protocol:
as §1

For assay [6], the system named is H2009. The assay can be described thus: Cell growth inhibition (CellTiter-Glo), NSCLC line H2009. It is filed as cell-based. The settings on record: H2009 non-small cell lung cancer cell line, 4 days. As for the experimental part:
as §1

Assay [7] relates to H1299. Nature of the assay: Cell growth inhibition (CellTiter-Glo), NSCLC line H1299. It is filed as cell-based. The note with it: H1299 non-small cell lung cancer cell line, 4 days. The protocol: as §1
Assay [8] relates to H2030. The assay can be described thus: Cell growth inhibition (CellTiter-Glo), NSCLC line H2030. It is filed as cell-based. The settings on record: H2030 non-small cell lung cancer cell line, 4 days. The protocol: as §1
For assay [9], the system named is H460. The assay can be described thus: Cell growth inhibition (CellTiter-Glo), NSCLC line H460. It is filed as cell-based. The note with it: H460 non-small cell lung cancer cell line, 4 days. The protocol: as §1
Assay [10] has as its system H647. The assay can be described thus: Cell growth inhibition (CellTiter-Glo), NSCLC line H647. The class given is cell-based. The settings on record: H647 non-small cell lung cancer cell line, 4 days. The protocol: as §1
Assay [11] deals with H23. The assay can be described thus: Cell growth inhibition (CellTiter-Glo), NSCLC line H23. It is filed as cell-based. The note with it: H23 non-small cell lung cancer cell line, 4 days. The protocol: as §1
Assay [12] concerns HBL-100. Nature of the assay: Cell growth inhibition (CellTiter-Glo), breast cancer line HBL-100. The class given is cell-based. The note with it: HBL-100 breast cancer cell line, 4 days. As for the experimental part: (§2) Cell growth inhibitory activity of representative BET bromodomain degraders in representative breast cancer cell lines was determined using the CellTiter-Glo® Luminescent Cell Viability Assay. SUM-52 and SUM-159 cell lines were established at the University of Michigan Comprehensive Cancer Center. All the other breast cancer cell lines were obtained from the ATCC (Manassas, Va.). Cells were seeded in 384-well cell culture plates at a density of 1,000-2,500 cells/well with serially diluted compounds and incubated at 37° C. in an atmosphere of 95% air and 5% CO2 for 4 days. Cell viability was determined using the CellTiter-Glo® Luminescent Cell Viability Assay Kit (Promega, Madison, Wis.) according to the manufacture's instruction. Briefly, a volume of CellTiter-Glo® Reagent equal to the volume of cell culture medium was added to each well, and then the plates were incubated at room temperature for 20-60 minutes. The luminescent signal was measured using a Tecan Infinite M1000 multimode microplate reader (Tecan, Morrisville, N.C.). The half maximal inhibitory concentration (IC50) was calculated using the GraphPad Prism 5 software (GraphPad Software, La Jolla, Calif.). “Thd” is thalidomide.

Assay [13] deals with MDA-MB-231. Nature of the assay: Cell growth inhibition (CellTiter-Glo), breast cancer line MDA-MB-231. It is filed as cell-based, human. The note with it: MDA-MB-231 breast cancer cell line, 4 days. As for the experimental part: as §2
Assay [14] concerns HCC1937. The assay can be described thus: Cell growth inhibition (CellTiter-Glo), breast cancer line HCC1937. The class given is cell-based. The settings on record: 4 days. As for the experimental part:
as §2

Assay [15] deals with HCC70. Nature of the assay: Cell growth inhibition (CellTiter-Glo), breast cancer line HCC70. The class given is cell-based. The settings on record: 4 days. As for the experimental part: as §2
Assay [16] deals with SUM-159. Nature of the assay: Cell growth inhibition (CellTiter-Glo), breast cancer line SUM-159. The settings on record: SUM-159 breast cancer cell line, 4 days. The class given is cell-based. The protocol:
as §2

In assay [17] the test system is SW48. The assay can be described thus: Cell growth inhibition (CellTiter-Glo), colon cancer line SW48. It is filed as cell-based. The protocol:
as §1, with “Appl. No. 62/121,637, having the following structure:” for “Appl.”
(§3) Cell growth inhibitory activity of representative BET bromodomain degraders in representative colon cancer cell lines, see Table 7, was determined as described in Example 17.

The subject of assay [18] is SW620. The assay can be described thus: Cell growth inhibition (CellTiter-Glo), colon cancer line SW620. The class given is cell-based. The protocol: as §1, with “Appl. No. 62/121,637, having the following structure:” for “Appl.”
as §3

In assay [19] the test system is LS513. The assay can be described thus: Cell growth inhibition (CellTiter-Glo), colon cancer line LS513. The class given is cell-based. The protocol:
as §1, with “Appl. No. 62/121,637, having the following structure:” for “Appl.”
as §3

Assay [20] concerns LS123. Nature of the assay: Cell growth inhibition (CellTiter-Glo), colon cancer line LS123. The class given is cell-based. The protocol:
as §1, with “Appl. No. 62/121,637, having the following structure:” for “Appl.”
as §3

Assay [21] deals with LS1034. Nature of the assay: Cell growth inhibition (CellTiter-Glo), colon cancer line LS1034. The class given is cell-based. As for the experimental part: as §1, with “Appl. No. 62/121,637, having the following structure:” for “Appl.”
as §3

For the molecule `CCn1nc(C2CC2)cc1Nc1nc(COC)nc2[nH]c3cc(-c4c(C)noc4C)c(OC)cc3c12` [Cpd. A, reference compound], the IC50 came to 2520 nM in [1] (Homo sapiens, 96 h); 40 nM in assay [2] (Homo sapiens, NCI-H1975, 96 h); 2720 nM in assay [3] (Homo sapiens, NCI-H2444, 96 h); 60 nM in assay [4] (96 h); 630 nM in assay [5] (Homo sapiens, Calu-6, 96 h); 170 nM in [6] (Homo sapiens, NCI-H2009, 96 h). In addition, the IC50 in assay [7] (Homo sapiens, NCI-H1299, 96 h) stood at 60 nM; in [8] (Homo sapiens, NCI-H2030, 96 h), 110 nM; in assay [9] (Homo sapiens, NCI-H460, 96 h), 1790 nM; in assay [10] (Homo sapiens, NCI-H647, 96 h) it was 80 nM; in [11] (Homo sapiens, NCI-H23, 96 h), 130 nM; in assay [12] (Homo sapiens, 96 h), 100 nM. The IC50 in assay [13] (Homo sapiens, 96 h) was 220 nM; in [14] (Homo sapiens, 96 h), > 5000 nM; in assay [15] (Homo sapiens, 96 h), 580 nM; in assay [16] (SUM159, 96 h) it was 510 nM; in assay [17] (Homo sapiens) it was 45.7 nM; in assay [18] (Homo sapiens, SW-620), > 2500 nM. Moreover, the half-inhibitory concentration (IC50) came out at 915 ± 670 nM in assay [19] (Homo sapiens, LS-513); 739 ± 680 nM in assay [20] (Homo sapiens, LS-123); 455 ± 430 nM in [21] (Homo sapiens, LS-1034).

`CCn1nc(C2CC2)cc1Nc1nc(C(=O)NCCCOCCOCCOCCCNc2cccc3c2C(=O)N(C2CCC(=O)NC2=O)C3=O)nc2[nH]c3cc(-c4c(C)noc4C)c(OC)cc3c12` (stereo not shown) [Cpd. No. 4]: the IC50 came out at 2 nM in [1] (Homo sapiens, 96 h); 3 nM in assay [2] (Homo sapiens, NCI-H1975, 96 h); 4 nM in assay [3] (Homo sapiens, NCI-H2444, 96 h); 9 nM in [4] (96 h); 9 nM in assay [5] (Homo sapiens, Calu-6, 96 h); 16 nM in assay [6] (Homo sapiens, NCI-H2009, 96 h). Moreover, the IC50 worked out at 69 nM in [7] (Homo sapiens, NCI-H1299, 96 h); 137 nM in assay [8] (Homo sapiens, NCI-H2030, 96 h); 505 nM in [9] (Homo sapiens, NCI-H460, 96 h); 598 nM in assay [10] (Homo sapiens, NCI-H647, 96 h); 612 nM in [11] (Homo sapiens, NCI-H23, 96 h); 4 nM in assay [12] (Homo sapiens, 96 h). Besides, the IC50 in assay [13] (Homo sapiens, 96 h) came to 4 nM; in assay [14] (Homo sapiens, 96 h), 8 nM; in assay [15] (Homo sapiens, 96 h), 35 nM; in assay [16] (SUM159, 96 h), 166 nM; in assay [17] (Homo sapiens), 6 nM; in assay [18] (Homo sapiens, SW-620) it was 38 ± 5 nM. For the same molecule, the IC50 in [19] (Homo sapiens, LS-513) came out at 70 ± 20 nM; in [20] (Homo sapiens, LS-123), 11 ± 10 nM; in [21] (Homo sapiens, LS-1034) it was 97 ± 20 nM.

On to `CCn1nc(C2CC2)cc1Nc1nc(C(=O)NCCCCNc2cccc3c2C(=O)N(C2CCC(=O)NC2=O)C3=O)nc2[nH]c3cc(-c4c(C)noc4C)c(OC)cc3c12` (stereo not shown) [Cpd. No. 9], for which the IC50 in assay [1] (Homo sapiens, 96 h) was 9 nM; in assay [2] (Homo sapiens, NCI-H1975, 96 h) it was 16 nM; in assay [3] (Homo sapiens, NCI-H2444, 96 h), 28 nM; in [4] (96 h), 93 nM; in assay [5] (Homo sapiens, Calu-6, 96 h) it was 33 nM; in assay [6] (Homo sapiens, NCI-H2009, 96 h), 34 nM. For the same molecule, the IC50 in assay [7] (Homo sapiens, NCI-H1299, 96 h) was found to be 228 nM; in assay [8] (Homo sapiens, NCI-H2030, 96 h), 269 nM; in assay [9] (Homo sapiens, NCI-H460, 96 h) it was 51000 nM; in assay [10] (Homo sapiens, NCI-H647, 96 h), 789 nM; in assay [11] (Homo sapiens, NCI-H23, 96 h), 3070 nM; in [17] (Homo sapiens), 8 nM. Besides, the IC50 in assay [18] (Homo sapiens, SW-620) worked out at 1040 ± 1040 nM; in assay [19] (Homo sapiens, LS-513), 185 ± 60 nM; in [20] (Homo sapiens, LS-123) it was 74 ± 50 nM; in [21] (Homo sapiens, LS-1034), 368 ± 170 nM.

Consider `Cc1sc2c(c1C)C(c1ccc(Cl)cc1)=N[C@@H](CC(=O)NCCCCNC(=O)COc1cccc3c1C(=O)N(C1CCC(=O)NC1=O)C3=O)c1nnc(C)n1-2` (stereo partly shown) [dBET1, reference compound], for which the IC50 in [1] was 3100 nM; in [2], > 5000 nM; in assay [3], 3000 nM; in assay [4], > 5000 nM; in assay [5], > 5000 nM; in assay [6] it was > 5000 nM. The IC50 in assay [7], in assay [8], in assay [9], in assay [10], in [11] and in [12] was > 5000 nM throughout. Moreover, the IC50 in [13] was 1830 nM; in [14], > 5000 nM; in assay [15] it was > 5000 nM; in assay [16], > 5000 nM; in assay [17], 2780 nM; in [18] it was > 5000 nM. Moreover, the IC50 in [19], in [20] and in assay [21] was > 5000 nM each time.
